Tests used:
[1] = tested on: C. neoformans; conditions: cited from earlier work
[2] = tested on: C. neoformans strain H99S; experiment: Synergy testing; type: cell-based, Cryptococcus neoformans; conditions: for MIC: Cryptococcus neoformans, H99S, read-out: MIC-B, Drug Alone; for MIC-B, Combination: Drug B in combination with AEC5, average of three independent experiments; for FIC index (FICi): combination of the labelled Drug B with AEC5 (Drug A); for interaction with AEC5 by FICi: combination of the labelled drug with AEC5; for change of the drug's MIC when combined with AEC5: drop of MIC, combination versus alone

Row | SMILES | concentration at which the compound becomes fungicidal ([1]; against C. neoformans, primarily fungistatic below) [x MIC] | time for 50% reduction in fungal growth ([1]; fluconazole against C. neoformans) [h] | MIC [2] [µg/mL] | MIC-B, Combination [2] [µg/mL] | FIC index (FICi) [2] | interaction with AEC5 by FICi [2] | change of the drug's MIC when combined with AEC5 [2] | time to reduce fungal growth by 50% ([1]; clinical isolates from HIV/AIDS patients) [h]
1 | OC(Cn1cncn1)(Cn1cncn1)c1ccc(F)cc1F [Fluconazole, fluconazole] | > 8 | 48 to 72 | 8 | 2 | 0.75 | indifferent (0.5 ≤ FICi ≤ 4 indifferent) | four-fold | –
2 | C[C@@H]1[C@H](O)[C@@H](C)/C=C/C=C/C=C/C=C/C=C/C=C/C=C/[C@H](O[C@@H]2O[C@H](C)[C@@H](O)[C@H](N)[C@@H]2O)C[C@@H]2O[C@](O)(C[C@@H](O)C[C@@H](O)[C@H](O)CC[C@@H](O)C[C@@H](O)CC(=O)O[C@H]1C)C[C@H](O)[C@H]2C(=O)O [Amphotericin B, amphotericin B] | – | – | 0.0156 | 0.0156 | 1.50 | indifferent (0.5 ≤ FICi ≤ 4 indifferent) | does not change | ≥ 10
3 | Nc1[nH]c(=O)ncc1F [Flucytosine, flucytosine] | – | – | 4 | 0.25 | 0.23 | synergistic (FICi < 0.5 synergistic) | – | –

From PMC6660985 (Biopolymers, 2019)
